Test results: PubChem BioAssay (NCI)
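1) Cells in 96-well plates. 2) Compound, 48 h, 5 concentrations. 3) Linear interpolation between surrounding doses. 4) Unreached endpoint = highest concentration. TGI is the concentration that stops growth completely.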

What was measured:
Experiment in all cases: NCI-60 cell line screen, 48 h
DU-145 prostate = system: DU-145 prostate
SF-539 CNS = system: SF-539 CNS
ACHN renal = system: ACHN renal
OVCAR-3 ovarian = system: OVCAR-3 ovarian
SF-268 CNS = system: SF-268 CNS
SK-MEL-28 melanoma = system: SK-MEL-28 melanoma
UACC-257 melanoma = system: UACC-257 melanoma
NCI-H226 lung = system: NCI-H226 lung
UO-31 renal = system: UO-31 renal
SNB-19 CNS = system: SNB-19 CNS
CCRF-CEM leukemia = system: CCRF-CEM leukemia
MOLT-4 leukemia = system: MOLT-4 leukemia
NCI-H23 lung = system: NCI-H23 lung
SNB-75 CNS = system: SNB-75 CNS
T-47D breast = system: T-47D breast
PC-3 prostate = system: PC-3 prostate
MDA-MB-231 breast = system: MDA-MB-231 breast
HCT-15 colon = system: HCT-15 colon
U251 CNS = system: U251 CNS
SN12C renal = system: SN12C renal
K-562 leukemia = system: K-562 leukemia
NCI-H522 lung = system: NCI-H522 lung
M14 melanoma = system: M14 melanoma
LOX IMVI melanoma = system: LOX IMVI melanoma
MCF7 breast = system: MCF7 breast
MALME-3M melanoma = system: MALME-3M melanoma
MDA-N = system: MDA-N
EKVX NSCLC = system: EKVX NSCLC
HS 578T breast = system: HS 578T breast
A549 NSCLC = system: A549 NSCLC
BT-549 breast = system: BT-549 breast
OVCAR-8 ovarian = system: OVCAR-8 ovarian
TK-10 renal = system: TK-10 renal
HCT-116 colon = system: HCT-116 colon
A498 renal = system: A498 renal
RXF 393 renal = system: RXF 393 renal
SW-620 colon = system: SW-620 colon
OVCAR-4 ovarian = system: OVCAR-4 ovarian
RPMI-8226 leukemia = system: RPMI-8226 leukemia
HT29 colon = system: HT29 colon
OVCAR-5 ovarian = system: OVCAR-5 ovarian
HCC-2998 colon = system: HCC-2998 colon
SF-295 CNS = system: SF-295 CNS
KM12 colon = system: KM12 colon
SR leukemia = system: SR leukemia
SK-MEL-5 melanoma = system: SK-MEL-5 melanoma
NCI-H460 lung = system: NCI-H460 lung
HOP-62 NSCLC = system: HOP-62 NSCLC
HL-60(TB) leukemia = system: HL-60(TB) leukemia
CAKI-1 renal = system: CAKI-1 renal
786-0 renal = system: 786-0 renal
HOP-92 NSCLC = system: HOP-92 NSCLC
IGROV1 ovarian = system: IGROV1 ovarian
COLO 205 colon = system: COLO 205 colon
UACC-62 melanoma = system: UACC-62 melanoma
SK-OV-3 ovarian = system: SK-OV-3 ovarian
MDA-MB-435 = system: MDA-MB-435
NCI/ADR-RES ovarian = system: NCI/ADR-RES ovarian
SK-MEL-2 melanoma = system: SK-MEL-2 melanoma

In the case of CC(=O)Oc1ccc2cc(Oc3ccc(Cl)c(Cl)c3)c(=O)oc2c1, the TGI (DU-145 prostate) is reported as greater than 100 µM, the TGI (SF-539 CNS) is reported as 46.8 µM and the TGI (ACHN renal) is reported as 72.6 µM. The TGI (OVCAR-3 ovarian) was 50 µM, the TGI (SF-268 CNS) was greater than 100 µM and the TGI (SK-MEL-28 melanoma) was 79.3 µM. For the same compound, the TGI (UACC-257 melanoma) was 85.1 µM, the TGI (NCI-H226 lung) was 82.9 µM and the TGI (UO-31 renal) was 51 µM. The TGI (SNB-19 CNS) was greater than 100 µM, the TGI (CCRF-CEM leukemia) was greater than 100 µM and the TGI (MOLT-4 leukemia) was greater than 100 µM. The TGI (NCI-H23 lung) was greater than 100 µM, the TGI (SNB-75 CNS) was greater than 100 µM and the TGI (T-47D breast) was 99.3 µM. It also gave a TGI (PC-3 prostate) of 53.3 µM, a TGI (MDA-MB-231 breast) greater than 100 µM and a TGI (HCT-15 colon) of 53.8 µM. For the same compound, the TGI (U251 CNS) was 41.5 µM, the TGI (SN12C renal) was 54.1 µM and the TGI (K-562 leukemia) was 69.6 µM. The TGI (NCI-H522 lung) was 46.5 µM, the TGI (M14 melanoma) was greater than 100 µM and the TGI (LOX IMVI melanoma) was 59.1 µM. The TGI (MCF7 breast) was 80.6 µM, the TGI (MALME-3M melanoma) was 94.1 µM and the TGI (MDA-N) was 56.6 µM. For the same compound, the TGI (EKVX NSCLC) was 80.8 µM, the TGI (HS 578T breast) was greater than 100 µM and the TGI (A549 NSCLC) was 94.8 µM. The TGI (BT-549 breast) was 34.4 µM, the TGI (OVCAR-8 ovarian) was 69.5 µM and the TGI (TK-10 renal) was 79.2 µM. It also gave a TGI (HCT-116 colon) of 39.9 µM, a TGI (A498 renal) of 65.8 µM and a TGI (RXF 393 renal) of 65.9 µM. For the same compound, the TGI (SW-620 colon) was greater than 100 µM, the TGI (OVCAR-4 ovarian) was greater than 100 µM and the TGI (RPMI-8226 leukemia) was greater than 100 µM. For the same compound, the TGI (HT29 colon) was greater than 100 µM, the TGI (OVCAR-5 ovarian) was greater than 100 µM and the TGI (HCC-2998 colon) was 39.6 µM. The TGI (SF-295 CNS) was greater than 100 µM, the TGI (KM12 colon) was 48.7 µM and the TGI (SR leukemia) was greater than 100 µM. It also gave a TGI (SK-MEL-5 melanoma) of 35.5 µM, a TGI (NCI-H460 lung) of 66 µM and a TGI (HOP-62 NSCLC) of 50.6 µM. For the same compound, the TGI (HL-60(TB) leukemia) was greater than 100 µM, the TGI (CAKI-1 renal) was 58.7 µM and the TGI (786-0 renal) was 52.4 µM. The TGI (HOP-92 NSCLC) was 78.8 µM and the TGI (IGROV1 ovarian) was greater than 100 µM.
COc1cc(/C=N\c2nc(-c3ccc(NS(=O)(=O)c4ccc(Cl)c(OC)c4)cc3)cs2)ccc1O gave a TGI (DU-145 prostate) greater than 100 µM, a TGI (COLO 205 colon) greater than 100 µM and a TGI (SF-539 CNS) greater than 100 µM. The TGI (ACHN renal) was greater than 100 µM, the TGI (OVCAR-3 ovarian) was greater than 100 µM and the TGI (SF-268 CNS) was greater than 100 µM. For the same compound, the TGI (UACC-62 melanoma) was 36.5 µM, the TGI (SK-MEL-28 melanoma) was greater than 100 µM and the TGI (NCI-H226 lung) was greater than 100 µM. The TGI (UO-31 renal) was greater than 100 µM, the TGI (SNB-19 CNS) was greater than 100 µM and the TGI (CCRF-CEM leukemia) was greater than 100 µM. It also gave a TGI (MOLT-4 leukemia) greater than 100 µM, a TGI (NCI-H23 lung) of 88.8 µM and a TGI (SK-OV-3 ovarian) greater than 100 µM. It also gave a TGI (MDA-MB-435) greater than 100 µM, a TGI (SNB-75 CNS) greater than 100 µM and a TGI (T-47D breast) of 59.1 µM. For the same compound, the TGI (PC-3 prostate) was greater than 100 µM, the TGI (HCT-15 colon) was greater than 100 µM and the TGI (SN12C renal) was greater than 100 µM. The TGI (K-562 leukemia) was greater than 100 µM, the TGI (NCI-H522 lung) was 60.9 µM and the TGI (M14 melanoma) was greater than 100 µM. For the same compound, the TGI (LOX IMVI melanoma) was greater than 100 µM, the TGI (MCF7 breast) was 56.2 µM and the TGI (MALME-3M melanoma) was greater than 100 µM. For the same compound, the TGI (MDA-N) was greater than 100 µM, the TGI (EKVX NSCLC) was greater than 100 µM and the TGI (HS 578T breast) was greater than 100 µM. For the same compound, the TGI (A549 NSCLC) was greater than 100 µM, the TGI (BT-549 breast) was 83 µM and the TGI (OVCAR-8 ovarian) was greater than 100 µM. It also gave a TGI (NCI/ADR-RES ovarian) greater than 100 µM, a TGI (HCT-116 colon) greater than 100 µM and a TGI (RXF 393 renal) of 80.8 µM. The TGI (SW-620 colon) was greater than 100 µM, the TGI (OVCAR-4 ovarian) was greater than 100 µM and the TGI (RPMI-8226 leukemia) was 74.2 µM. For the same compound, the TGI (HT29 colon) was greater than 100 µM, the TGI (OVCAR-5 ovarian) was greater than 100 µM and the TGI (SF-295 CNS) was greater than 100 µM. The TGI (KM12 colon) was greater than 100 µM, the TGI (SR leukemia) was greater than 100 µM and the TGI (SK-MEL-5 melanoma) was greater than 100 µM. For the same compound, the TGI (HOP-62 NSCLC) was greater than 100 µM, the TGI (HL-60(TB) leukemia) was 74 µM and the TGI (CAKI-1 renal) was greater than 100 µM. It also gave a TGI (786-0 renal) greater than 100 µM, a TGI (HOP-92 NSCLC) greater than 100 µM and a TGI (SK-MEL-2 melanoma) greater than 100 µM. For the same compound, the TGI (IGROV1 ovarian) was greater than 100 µM.
COc1cc2oc(-c3ccc4c(c3)OCO4)c(OC)c(=O)c2c(OC)c1O was tested, and the TGI (DU-145 prostate) was greater than 100 µM, the TGI (COLO 205 colon) was greater than 100 µM and the TGI (SF-539 CNS) was greater than 100 µM. It also gave a TGI (ACHN renal) greater than 100 µM, a TGI (OVCAR-3 ovarian) greater than 100 µM and a TGI (SF-268 CNS) greater than 100 µM. It also gave a TGI (UACC-62 melanoma) greater than 100 µM, a TGI (SK-MEL-28 melanoma) greater than 100 µM and a TGI (UACC-257 melanoma) greater than 100 µM. For the same compound, the TGI (NCI-H226 lung) was greater than 100 µM, the TGI (UO-31 renal) was greater than 100 µM and the TGI (SNB-19 CNS) was greater than 100 µM. The TGI (CCRF-CEM leukemia) was greater than 100 µM, the TGI (MOLT-4 leukemia) was greater than 100 µM and the TGI (NCI-H23 lung) was greater than 100 µM. For the same compound, the TGI (SK-OV-3 ovarian) was greater than 100 µM, the TGI (MDA-MB-435) was greater than 100 µM and the TGI (SNB-75 CNS) was 97.6 µM. The TGI (T-47D breast) was greater than 100 µM, the TGI (PC-3 prostate) was greater than 100 µM and the TGI (MDA-MB-231 breast) was greater than 100 µM. For the same compound, the TGI (HCT-15 colon) was greater than 100 µM, the TGI (U251 CNS) was greater than 100 µM and the TGI (SN12C renal) was greater than 100 µM. It also gave a TGI (K-562 leukemia) greater than 100 µM, a TGI (NCI-H522 lung) of 59.2 µM and a TGI (M14 melanoma) greater than 100 µM. It also gave a TGI (LOX IMVI melanoma) greater than 100 µM, a TGI (MCF7 breast) greater than 100 µM and a TGI (MALME-3M melanoma) greater than 100 µM. For the same compound, the TGI (MDA-N) was greater than 100 µM, the TGI (EKVX NSCLC) was greater than 100 µM and the TGI (HS 578T breast) was greater than 100 µM. The TGI (A549 NSCLC) was greater than 100 µM, the TGI (BT-549 breast) was greater than 100 µM and the TGI (OVCAR-8 ovarian) was greater than 100 µM. It also gave a TGI (NCI/ADR-RES ovarian) greater than 100 µM, a TGI (TK-10 renal) greater than 100 µM and a TGI (HCT-116 colon) greater than 100 µM. For the same compound, the TGI (A498 renal) was greater than 100 µM, the TGI (RXF 393 renal) was greater than 100 µM and the TGI (SW-620 colon) was greater than 100 µM. For the same compound, the TGI (OVCAR-4 ovarian) was greater than 100 µM, the TGI (HT29 colon) was greater than 100 µM and the TGI (OVCAR-5 ovarian) was greater than 100 µM. The TGI (HCC-2998 colon) was greater than 100 µM, the TGI (SF-295 CNS) was greater than 100 µM and the TGI (KM12 colon) was greater than 100 µM. It also gave a TGI (SK-MEL-5 melanoma) greater than 100 µM, a TGI (NCI-H460 lung) greater than 100 µM and a TGI (HOP-62 NSCLC) greater than 100 µM. The TGI (HL-60(TB) leukemia) was 84 µM, the TGI (CAKI-1 renal) was greater than 100 µM and the TGI (786-0 renal) was 43.9 µM. The TGI (HOP-92 NSCLC) was 89.4 µM and the TGI (IGROV1 ovarian) was greater than 100 µM.
